Active and inactive are the calls of the source. No cut-off for these calls is given here.
Columns and labels:
[1] = molecular target: Histone deacetylase 1 (Homo sapiens, UniProt Q13547); settings: dose 500.0 nM, time 3.0 hrs
[2] = molecular target: T1, Protein deacetylase HDAC6 (Homo sapiens) (UniProt Q9UBN7); settings: dose 500.0 nM, time 3.0 hrs
T1 sequence (whole entry): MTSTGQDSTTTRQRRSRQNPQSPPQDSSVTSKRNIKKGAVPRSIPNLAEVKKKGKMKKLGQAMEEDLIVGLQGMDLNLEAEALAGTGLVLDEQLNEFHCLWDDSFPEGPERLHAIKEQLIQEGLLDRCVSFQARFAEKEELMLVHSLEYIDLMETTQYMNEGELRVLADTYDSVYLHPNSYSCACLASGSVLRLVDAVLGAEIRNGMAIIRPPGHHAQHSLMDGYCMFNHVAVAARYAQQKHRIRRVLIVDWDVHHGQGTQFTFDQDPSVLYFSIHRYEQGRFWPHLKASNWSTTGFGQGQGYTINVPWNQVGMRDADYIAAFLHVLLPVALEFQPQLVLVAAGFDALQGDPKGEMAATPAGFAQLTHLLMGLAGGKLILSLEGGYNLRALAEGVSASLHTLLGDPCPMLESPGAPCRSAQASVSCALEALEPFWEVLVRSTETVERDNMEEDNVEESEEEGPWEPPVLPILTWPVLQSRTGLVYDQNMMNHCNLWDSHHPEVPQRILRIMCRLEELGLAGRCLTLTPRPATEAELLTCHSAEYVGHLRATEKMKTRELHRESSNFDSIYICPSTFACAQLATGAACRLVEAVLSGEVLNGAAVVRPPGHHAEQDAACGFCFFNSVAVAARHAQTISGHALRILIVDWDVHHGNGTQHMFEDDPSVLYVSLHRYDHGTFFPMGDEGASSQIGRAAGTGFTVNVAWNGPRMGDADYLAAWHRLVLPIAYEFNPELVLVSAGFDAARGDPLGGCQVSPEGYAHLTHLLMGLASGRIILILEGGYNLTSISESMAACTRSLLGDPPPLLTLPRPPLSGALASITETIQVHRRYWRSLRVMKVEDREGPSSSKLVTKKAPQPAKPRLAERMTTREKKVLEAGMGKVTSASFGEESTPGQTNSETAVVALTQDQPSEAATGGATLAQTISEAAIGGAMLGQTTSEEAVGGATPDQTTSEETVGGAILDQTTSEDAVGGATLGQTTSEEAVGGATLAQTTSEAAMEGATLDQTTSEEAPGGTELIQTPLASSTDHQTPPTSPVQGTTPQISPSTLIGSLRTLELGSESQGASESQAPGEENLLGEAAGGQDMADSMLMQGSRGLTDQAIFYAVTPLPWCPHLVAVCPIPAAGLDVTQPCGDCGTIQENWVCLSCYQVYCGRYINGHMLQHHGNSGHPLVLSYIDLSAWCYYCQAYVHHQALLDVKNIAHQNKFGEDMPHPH

[3] = molecular target: Histone deacetylase 3 (Homo sapiens, UniProt O15379); settings: dose 500.0 nM, time 3.0 hrs
Chain of Histone deacetylase 3 (O15379 whole entry): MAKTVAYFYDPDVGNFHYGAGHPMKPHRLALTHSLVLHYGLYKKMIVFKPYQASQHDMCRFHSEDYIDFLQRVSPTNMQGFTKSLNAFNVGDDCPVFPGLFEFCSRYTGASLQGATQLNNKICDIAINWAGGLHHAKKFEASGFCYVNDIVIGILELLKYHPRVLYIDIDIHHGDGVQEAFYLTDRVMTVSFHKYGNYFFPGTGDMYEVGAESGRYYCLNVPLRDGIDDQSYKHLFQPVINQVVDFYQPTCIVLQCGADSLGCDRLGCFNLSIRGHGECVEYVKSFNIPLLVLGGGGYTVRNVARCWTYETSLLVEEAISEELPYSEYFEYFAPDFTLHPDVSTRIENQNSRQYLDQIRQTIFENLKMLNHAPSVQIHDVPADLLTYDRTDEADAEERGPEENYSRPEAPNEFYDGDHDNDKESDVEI

[4] = molecular target: T2, Histone deacetylase 3 (Mus musculus) (UniProt O88895); assay: Inhibition of HDAC3 in mouse B16-F10 cells assessed as increase in histone H3 acetylation level at 5 to 20 uM incubated for 24 hrs by Western blot analysis; assay type: cell-based; settings: dose 5-20 µM
T2 sequence (whole entry): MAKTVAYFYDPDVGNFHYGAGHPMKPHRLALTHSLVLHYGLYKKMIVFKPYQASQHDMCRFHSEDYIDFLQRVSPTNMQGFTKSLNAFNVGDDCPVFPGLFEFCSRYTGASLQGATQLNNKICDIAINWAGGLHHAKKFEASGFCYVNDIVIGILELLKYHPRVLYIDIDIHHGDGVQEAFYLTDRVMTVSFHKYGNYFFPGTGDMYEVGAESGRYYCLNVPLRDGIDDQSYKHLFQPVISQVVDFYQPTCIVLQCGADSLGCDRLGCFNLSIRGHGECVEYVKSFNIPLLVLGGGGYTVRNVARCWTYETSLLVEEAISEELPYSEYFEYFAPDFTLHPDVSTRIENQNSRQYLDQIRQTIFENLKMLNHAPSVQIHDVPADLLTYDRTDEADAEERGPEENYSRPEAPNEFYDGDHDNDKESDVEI

[5] = system: Mus musculus; assay: Effect on acetylated alpha-tubulin level in male C57BL/6 mouse tumor implanted with mouse B16-F10 cells at 50 mg/kg, po administered once daily via gavage for 14 days by Western blot analysis; assay type: functional, organism-based; settings: time 14.0 day
[6] = system: Mus musculus; assay: Immunomodulatory activity in male C57BL/6 mouse model implanted with mouse B16-F10 cells assessed as increase in CD3+ CD8+ T cells in tumor at 50 mg/kg, po administered once daily for 14 days by flow cytometric analysis (reference value: 3.2 %); assay type: functional; settings: time 14 day
[7] = molecular target: T2, Histone deacetylase 3 (Mus musculus); assay: Inhibition of HDAC3 in mouse 4T1 cells assessed as increase in histone H3 acetylation level at 5 to 20 uM incubated for 24 hrs by Western blot analysis; assay type: cell-based; settings: dose 5-20 µM
[8] = molecular target: T2, Histone deacetylase 3 (Mus musculus); assay: In vivo inhibition of HDAC3 in male C57BL/6 mouse model implanted with mouse B16-F10 cells assessed as increase in acetylated histone H3 level at 50 mg/kg, po administered once daily via gavage for 14 days by Western blot analysis; assay type: functional, organism-based; settings: time 14.0 day
[9] = molecular target: T2, Histone deacetylase 3 (Mus musculus); assay: In vivo inhibition of HDAC3 in male C57BL/6 mouse model implanted with mouse B16-F10 cells assessed as increase in acetylated histone H3 level in tumor at 50 mg/kg, po administered once daily via gavage for 14 days by DAPI staining based immunofluorescence analysis; assay type: functional, organism-based; settings: time 14.0 day
[10] = system: Mus musculus; assay: Immunomodulatory activity in male C57BL/6 mouse model implanted with mouse B16-F10 cells assessed as increase in CD3+ CD4+ T cells in tumor at 50 mg/kg, po administered once daily for 14 days by flow cytometric analysis (reference value: 3.1 %); assay type: functional; settings: time 14 day
[11] = system: B16-F10; assay: cells; assay type: functional, cell-based; settings: Mus musculus, B16-F10, 72 h
Description: Antiproliferative activity against mouse B16-F10 cells assessed as inhibition of cell growth incubated for 72 hrs by MTT assay

[12] = system: 4T1; assay: cells; assay type: functional, cell-based; settings: Mus musculus, 4T1, 72 h
[13] = system: HCT-116; assay: cells; assay type: functional, cell-based; settings: Homo sapiens, HCT-116, 72 h
Description: Antiproliferative activity against human HCT-116 cells assessed as inhibition of cell growth incubated for 72 hrs by MTT assay

[14] = molecular target: Histone deacetylase 11 (Homo sapiens, UniProt Q96DB2); assay: Inhibition of recombinant HDAC11 (unknown origin) preincubated for 1 hr followed by substrate addition and measured after 2 hrs by fluorescence based micro plate reader analysis
Chain of Histone deacetylase 11 (Q96DB2 whole entry): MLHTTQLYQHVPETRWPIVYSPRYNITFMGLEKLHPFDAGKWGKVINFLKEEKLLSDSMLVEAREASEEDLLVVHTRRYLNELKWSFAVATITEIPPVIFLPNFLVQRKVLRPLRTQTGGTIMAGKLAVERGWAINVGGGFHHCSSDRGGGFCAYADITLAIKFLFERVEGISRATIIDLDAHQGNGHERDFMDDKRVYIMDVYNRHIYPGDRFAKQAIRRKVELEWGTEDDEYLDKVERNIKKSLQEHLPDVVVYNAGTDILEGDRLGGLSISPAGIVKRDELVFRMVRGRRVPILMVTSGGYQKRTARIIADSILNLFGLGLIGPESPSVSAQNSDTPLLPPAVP

[15] = system: SK-OV-3; assay: cells; assay type: functional, cell-based; settings: Homo sapiens, SK-OV-3, 72 h
Description: Antiproliferative activity against human SK-OV-3 cells assessed as inhibition of cell growth incubated for 72 hrs by MTT assay

[16] = Retention time of compound by HPLC analysis; assay type: physicochemical

Chain of Histone deacetylase 1 (Q13547 whole entry): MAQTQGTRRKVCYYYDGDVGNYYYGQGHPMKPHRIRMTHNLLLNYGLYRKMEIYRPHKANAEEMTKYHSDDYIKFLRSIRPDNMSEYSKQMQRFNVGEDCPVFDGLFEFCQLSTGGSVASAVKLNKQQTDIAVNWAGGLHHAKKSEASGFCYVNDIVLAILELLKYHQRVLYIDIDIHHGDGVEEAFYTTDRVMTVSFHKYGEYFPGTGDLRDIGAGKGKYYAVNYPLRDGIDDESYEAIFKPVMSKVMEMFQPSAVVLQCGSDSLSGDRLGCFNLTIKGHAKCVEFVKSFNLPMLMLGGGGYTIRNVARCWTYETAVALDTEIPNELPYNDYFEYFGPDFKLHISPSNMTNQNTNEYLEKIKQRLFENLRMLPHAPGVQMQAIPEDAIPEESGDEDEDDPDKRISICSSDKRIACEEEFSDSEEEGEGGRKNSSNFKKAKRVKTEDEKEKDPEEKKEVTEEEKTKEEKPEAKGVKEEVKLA

Row | SMILES | inhibition [1] [%] | inhibition [2] [%] | inhibition [3] [%] | other results
1 | CC(C)CCNNC(=O)c1ccc(Cn2c3ccccc3c3c(-c4ccccn4)nc4ccccc4c32)cc1 | < 10 | < 10 | < 10 | 
2 | CCNNC(=O)c1ccc(Cn2c3ccccc3c3c(-c4ccccn4)nc4ccccc4c32)cc1 | 11 | < 10 | 32 | 
3 | CCCN(CCC)NC(=O)c1ccc(Cn2c3ccccc3c3c(-c4cccc(F)c4)nc4ccccc4c32)cc1 | 27 | < 10 | 31 | 
4 | O=C(CCCCCCC(=O)Nc1ccccc1)NO [VORINOSTAT] |  |  | 77 | inhibition [4]: Active; Activity [5]: inactive; Activity [6]: 23%; inhibition [7]: Active; inhibition [8]: Active; inhibition [9]: Active; Activity [10]: 17%
5 | CCCNNC(=O)c1ccc(Cn2c3ccccc3c3c(-c4cccc(F)c4)nc4ccccc4c32)cc1 | 20 | < 10 | 69 | 
6 | CCCNNC(=O)c1ccc(Cn2c3ccccc3c3c(-c4ccc(C#N)cc4)nc4ccccc4c32)cc1 | < 10 | < 10 | 33 | 
7 | CCCNNC(=O)c1ccc(Cn2c3ccccc3c3c(-c4cc(OC)ccc4O)nc4ccccc4c32)cc1 | 27 | 14 | 66 | 
8 | Nc1ccccc1NC(=O)c1ccc(CNC(=O)OCc2cccnc2)cc1 [ENTINOSTAT] | 88 | 24 |  | IC50 [11]: 13.9 µM; IC50 [12]: 6.85 µM; IC50 [13]: 1.67 µM; IC50 [14]: > 10 µM; IC50 [15]: > 10 µM
9 | C/C=C/CNNC(=O)c1ccc(Cn2c3ccccc3c3c(-c4ccccn4)nc4ccccc4c32)cc1 | 39 | < 10 | 91 | 
10 | CCCNNC(=O)c1ccc(Cn2c3ccccc3c3c(-c4cc(Cl)ccc4O)nc4ccccc4c32)cc1 | 31 | 30 | 47 | 
11 | CCCCNNC(=O)c1ccc(Cn2c3ccccc3c3c(-c4ccccn4)nc4ccccc4c32)cc1 | 35 | < 10 | 92 | 
12 | CCCNNC(=O)c1ccc(Cn2c3ccccc3c3c(-c4ccc(OC)cc4)nc4ccccc4c32)cc1 | 29 | < 10 | 58 | 
13 | CCCCCCCCCCNNC(=O)c1ccc(Cn2c3ccccc3c3c(-c4ccccn4)nc4ccccc4c32)cc1 | < 10 | < 10 | < 10 | 
14 | CCCNNC(=O)c1ccc(Cn2c3ccccc3c3c(-c4ccccc4)nc4ccccc4c32)cc1 | < 10 | 24 | 57 | 
15 | CCCNNC(=O)c1ccc(Cn2c3ccccc3c3c(-c4cccnc4)nc4ccccc4c32)cc1 | 16 | 21 | 84 | 
16 | CCCNNC(=O)c1ccc(Cn2c3ccccc3c3c(C4CCN(C(=O)OC(C)(C)C)CC4)nc4ccccc4c32)cc1 | 22 | < 10 | 73 | 
17 | CCCNNC(=O)c1ccc(Cn2c3ccccc3c3c(-c4cccc(Cl)c4)nc4ccccc4c32)cc1 | 25 | < 10 | 73 | 
18 | CCCNNC(=O)c1ccc(Cn2c3ccccc3c3c(-c4ccncc4)nc4ccccc4c32)cc1 | 12 | 19 | 65 | 
19 | CCCCCCCCNNC(=O)c1ccc(Cn2c3ccccc3c3c(-c4ccccn4)nc4ccccc4c32)cc1 | < 10 | 26 | 40 | 
20 | CCCN(CCC)NC(=O)c1ccc(Cn2c3ccccc3c3c(-c4ccccn4)nc4ccccc4c32)cc1 | 23 | < 10 | 29 | 
21 | CCCCCNNC(=O)c1ccc(Cn2c3ccccc3c3c(-c4ccccn4)nc4ccccc4c32)cc1 | 20 | < 10 | 82 | 
22 | CCCNNC(=O)c1ccc(Cn2c3ccccc3c3c(-c4ccc(C(=O)NNCCC)cc4)nc4ccccc4c32)cc1 | < 10 | < 10 | 38 | 
23 | CCCNNC(=O)c1ccc(Cn2c3ccccc3c3c(-c4ccc(O)c(OC)c4)nc4ccccc4c32)cc1 | 20 | < 10 | 79 | 
24 | CC(/C=C/C(=O)NO)=C\[C@@H](C)C(=O)c1ccc(N(C)C)cc1 [TRICHOSTATIN] |  |  |  | Retention_time [16]: 14.7 min
25 | CCCN(CCC)NC(=O)c1ccc(Cn2c3ccccc3c3c(C4CCN(C(=O)OC(C)(C)C)CC4)nc4ccccc4c32)cc1 | < 10 | < 10 | < 10 | 
26 | CCCCCCCCCNNC(=O)c1ccc(Cn2c3ccccc3c3c(-c4ccccn4)nc4ccccc4c32)cc1 | < 10 | < 10 | 29 | 
27 | CC(C)NNC(=O)c1ccc(Cn2c3ccccc3c3c(-c4ccccn4)nc4ccccc4c32)cc1 | < 10 | < 10 | < 10 | 
28 | CCCNNC(=O)c1ccc(Cn2c3ccccc3c3c(-c4cccc([N+](=O)[O-])c4)nc4ccccc4c32)cc1 | < 10 | 18 | 47 | 
29 | CCCCCCCNNC(=O)c1ccc(Cn2c3ccccc3c3c(-c4ccccn4)nc4ccccc4c32)cc1 | 22 | < 10 | 53 | 
30 | CCCNNC(=O)c1ccc(Cn2c3ccccc3c3c(-c4cn(C)c5ccccc45)nc4ccccc4c32)cc1 | < 10 | < 10 | 36 | 

— ChEMBL document CHEMBL6096732 (J Med Chem, 2025)
